Source: US11135234B2, “Effective aminoglycoside antibiotic for multidrug-resistant bacteria” (MICROBIAL CHEMISTRY RESEARCH FOUNDATION, priority 2015, dated 2021)
In brackets after ≈: the same amount, converted by molar mass.

Experiments:
[1] = system: A. baumannii ATCC BAA-1710; experiment: MIC, agar plate dilution method, A. baumannii ATCC BAA-1710; assay type: cell-based, Acinetobacter baumannii; conditions: for minimal inhibitory concentration (MIC): A. baumannii ATCC BAA-1710, MDRA; for MIC: Acinetobacter baumannii, ATCCBAA1710, A. baumannii ATCC BAA-1710, MDRA, read-out: minimal inhibitory concentration (MIC)
Outline: (§1)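 Agar plate dilution per Japan Society of Chemotherapy standard; read-out = MIC in μg/mL.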

[2] = system: S. marcescens GN6944; experiment: MIC, agar plate dilution method, S. marcescens GN6944; assay type: cell-based, Serratia marcescens; conditions: S. marcescens GN6944, GM-resistant; for MIC: Serratia marcescens, read-out: minimal inhibitory concentration (MIC)
Outline: as §1

[3] = system: P. aeruginosa MSC17707; experiment: MIC, agar plate dilution method, P. aeruginosa MSC17707; assay type: cell-based, Pseudomonas aeruginosa; conditions: for minimal inhibitory concentration (MIC): P. aeruginosa MSC17707, AMK-resistant; for MIC: Pseudomonas aeruginosa, MSC17707, P. aeruginosa MSC17707, AMK-resistant, read-out: minimal inhibitory concentration (MIC)
Outline: as §1

[4] = system: P. aeruginosa PAO1/GN315; experiment: MIC, agar plate dilution method, P. aeruginosa PAO1/GN315; assay type: cell-based, Pseudomonas aeruginosa; conditions: for minimal inhibitory concentration (MIC): P. aeruginosa PAO1/GN315, AMK-resistant; for MIC: Pseudomonas aeruginosa, read-out: minimal inhibitory concentration (MIC), P. aeruginosa PAO1/GN315, AMK-resistant
Outline: as §1

[5] = system: S. aureus RN4220; experiment: MIC, agar plate dilution method, S. aureus RN4220; assay type: cell-based, Staphylococcus aureus; conditions: for minimal inhibitory concentration (MIC): S. aureus RN4220, Sensitive bacterium; for MIC: Staphylococcus aureus, RN4220, S. aureus RN4220, Sensitive bacterium, read-out: minimal inhibitory concentration (MIC)
Outline: as §1

[6] = system: S. marcescens TH-0447; experiment: MIC, agar plate dilution method, S. marcescens TH-0447; assay type: cell-based, Serratia marcescens; conditions: for minimal inhibitory concentration (MIC): S. marcescens TH-0447, AMK-resistant; for MIC: Serratia marcescens, TH0447, S. marcescens TH-0447, AMK-resistant, read-out: minimal inhibitory concentration (MIC)
Outline: as §1

[7] = system: S. aureus MF490; experiment: MIC, agar plate dilution method, S. aureus MF490; assay type: cell-based, Staphylococcus aureus; conditions: for minimal inhibitory concentration (MIC): S. aureus MF490, MRSA; for MIC: Staphylococcus aureus, MRSA, read-out: minimal inhibitory concentration (MIC)
Outline: as §1

[8] = system: P. aeruginosa PAO1; experiment: MIC, agar plate dilution method, P. aeruginosa PAO1; assay type: cell-based, Pseudomonas aeruginosa; conditions: for minimal inhibitory concentration (MIC): P. aeruginosa PAO1, Sensitive bacterium; for MIC: Pseudomonas aeruginosa, PAO1, P. aeruginosa PAO1, Sensitive bacterium, read-out: minimal inhibitory concentration (MIC)
Outline: as §1

[9] = system: E. coli JM109/pMW218; experiment: MIC, agar plate dilution method, E. coli JM109/pMW218; assay type: cell-based, Escherichia coli; conditions: for minimal inhibitory concentration (MIC): E. coli JM109/pMW218, Sensitive bacterium; for MIC: Escherichia coli, JM109/PMW218, E. coli JM109/pMW218, Sensitive bacterium, read-out: minimal inhibitory concentration (MIC)
Outline: as §1

[10] = system: S. aureus RN4220/pMS520; experiment: MIC, agar plate dilution method, S. aureus RN4220/pMS520; assay type: cell-based, Staphylococcus aureus; conditions: for minimal inhibitory concentration (MIC): S. aureus RN4220/pMS520, MRSA; for MIC: Staphylococcus aureus, MRSA, read-out: minimal inhibitory concentration (MIC), S. aureus RN4220/pMS520, MRSA
Outline: as §1

[11] = system: K. pneumoniae ATCC BAA-1705; experiment: MIC, agar plate dilution method, K. pneumoniae ATCC BAA-1705; assay type: cell-based, Klebsiella pneumoniae; conditions: for minimal inhibitory concentration (MIC): K. pneumoniae ATCC BAA-1705, KPC-producing strain; for MIC: Klebsiella pneumoniae, ATCCBAA1705, K. pneumoniae ATCC BAA-1705, KPC-producing strain, read-out: minimal inhibitory concentration (MIC)
Outline: as §1

[12] = system: K. pneumoniae ATCC BAA-2146; experiment: MIC, agar plate dilution method, K. pneumoniae ATCC BAA-2146; assay type: cell-based, Klebsiella pneumoniae; conditions: for minimal inhibitory concentration (MIC): K. pneumoniae ATCC BAA-2146, NDM-producing strain; for MIC: Klebsiella pneumoniae, ATCCBAA2146, K. pneumoniae ATCC BAA-2146, NDM-producing strain, read-out: minimal inhibitory concentration (MIC)
Outline: as §1

[13] = system: P. aeruginosa MSC01035; experiment: MIC, agar plate dilution method, P. aeruginosa MSC01035; assay type: cell-based, Pseudomonas aeruginosa; conditions: P. aeruginosa MSC01035, ABK-resistant; for MIC: Pseudomonas aeruginosa, read-out: minimal inhibitory concentration (MIC)
Outline: as §1

[14] = system: E. faecium ATCC19434; experiment: MIC, agar plate dilution method, E. faecium ATCC19434; assay type: cell-based, Enterococcus faecium; conditions: for minimal inhibitory concentration (MIC): E. faecium ATCC19434; for MIC: Enterococcus faecium, ATCC19434, E. faecium ATCC19434, read-out: minimal inhibitory concentration (MIC)
Outline: as §1

Structure (SMILES) | minimal inhibitory concentration (MIC) [1] | minimal inhibitory concentration (MIC) [2] | minimal inhibitory concentration (MIC) [3] | minimal inhibitory concentration (MIC) [4] | minimal inhibitory concentration (MIC) [5] | minimal inhibitory concentration (MIC) [6] | minimal inhibitory concentration (MIC) [7] | minimal inhibitory concentration (MIC) [8] | minimal inhibitory concentration (MIC) [9] | minimal inhibitory concentration (MIC) [10] | minimal inhibitory concentration (MIC) [11] | minimal inhibitory concentration (MIC) [12] | minimal inhibitory concentration (MIC) [13] | minimal inhibitory concentration (MIC) [14] | further results
CN[C@@H]1[C@@H](O[C@H]2O[C@H](CO)[C@@H](N)[C@@H](O)[C@H]2O)O[C@H]2C[C@@H](N)[C@@H](O[C@H]3[C@H](O)[C@@H](O)[C@H](N)C[C@@H]3N)O[C@@H]2[C@@H]1O [Compound H3, 3″-epiapramycin] | 8 µg/mL (≈ 14.8 µM) | 8 µg/mL (≈ 14.8 µM) | 8 µg/mL (≈ 14.8 µM) | 8 µg/mL (≈ 14.8 µM) | 4 µg/mL (≈ 7.41 µM) | 8 µg/mL (≈ 14.8 µM) | 8 µg/mL (≈ 14.8 µM) | 8 µg/mL (≈ 14.8 µM) | 2 µg/mL (≈ 3.71 µM) | 4 µg/mL (≈ 7.41 µM) | 2 µg/mL (≈ 3.71 µM) | 2 µg/mL (≈ 3.71 µM) | 8 µg/mL (≈ 14.8 µM) | 16 µg/mL (≈ 29.7 µM) | 
CNC1C(O[C@H]2OC(C)[C@@H](N)[C@H](O)C2O)O[C@H]2CC(N)[C@@H](O[C@H]3CC(O)[C@H](N)CC3N)OC2C1O (some centres unmarked) [Compound L5, 5,6″-dideoxyapramycin] |  |  |  |  |  |  |  |  |  |  |  |  |  |  | MIC [1]: 8 µg/mL (≈ 15.8 µM); MIC [2]: 4 µg/mL (≈ 7.88 µM); MIC [3]: 8 µg/mL (≈ 15.8 µM); MIC [4]: 4 µg/mL (≈ 7.88 µM); MIC [5]: 2 µg/mL (≈ 3.94 µM); MIC [6]: 4 µg/mL (≈ 7.88 µM); MIC [7]: 4 µg/mL (≈ 7.88 µM); MIC [8]: 4 µg/mL (≈ 7.88 µM); MIC [9]: 1 µg/mL (≈ 1.97 µM); MIC [10]: 1 µg/mL (≈ 1.97 µM); MIC [11]: 1 µg/mL (≈ 1.97 µM); MIC [12]: 1 µg/mL (≈ 1.97 µM); MIC [13]: 8 µg/mL (≈ 15.8 µM); MIC [14]: 8 µg/mL (≈ 15.8 µM)
CN[C@@H]1[C@@H](O[C@H]2O[C@H](CO)[C@@H](NC(=O)[C@H](N)CO)[C@H](O)[C@H]2O)O[C@H]2C[C@@H](N)[C@@H](O[C@H]3[C@H](O)[C@@H](O)[C@H](N)C[C@@H]3N)O[C@@H]2[C@@H]1O [Compound V1-f, 4″-N-(D-seryl)apramycin] | 8 µg/mL (≈ 12.8 µM) | 16 µg/mL (≈ 25.5 µM) | 8 µg/mL (≈ 12.8 µM) | 8 µg/mL (≈ 12.8 µM) | 8 µg/mL (≈ 12.8 µM) | 16 µg/mL (≈ 25.5 µM) | 32 µg/mL (≈ 51.1 µM) | 4 µg/mL (≈ 6.38 µM) | 2 µg/mL (≈ 3.19 µM) | 8 µg/mL (≈ 12.8 µM) | 4 µg/mL (≈ 6.38 µM) | 2 µg/mL (≈ 3.19 µM) | 8 µg/mL (≈ 12.8 µM) | 64 µg/mL (≈ 102 µM) | 
CNC1C(O[C@H]2OC(CO)[C@@H](N)[C@H](O)C2N)O[C@H]2CC(N)[C@@H](O[C@@H]3C(N)C[C@@H](N)C(O)[C@H]3O)OC2C1O (some centres unmarked) [Compound G7, 2″-amino-2″-deoxy-2″,3″-diepiapramycin] |  |  |  |  |  |  |  |  |  |  |  |  |  |  | MIC [1]: 8 µg/mL (≈ 14.9 µM); MIC [2]: 8 µg/mL (≈ 14.9 µM); MIC [3]: 8 µg/mL (≈ 14.9 µM); MIC [4]: 8 µg/mL (≈ 14.9 µM); MIC [5]: 4 µg/mL (≈ 7.43 µM); MIC [6]: 8 µg/mL (≈ 14.9 µM); MIC [7]: 16 µg/mL (≈ 29.7 µM); MIC [8]: 8 µg/mL (≈ 14.9 µM); MIC [9]: 1 µg/mL (≈ 1.86 µM); MIC [10]: 8 µg/mL (≈ 14.9 µM); MIC [11]: 2 µg/mL (≈ 3.71 µM); MIC [12]: 4 µg/mL (≈ 7.43 µM); MIC [13]: 16 µg/mL (≈ 29.7 µM); MIC [14]: 16 µg/mL (≈ 29.7 µM)
CNC1C(OC2OC(CO)C(NC(=N)N)C(O)C2O)OC2CC(N)C(OC3C(N)CC(N)C(O)C3N)OC2C1O (stereo not drawn) [Compound W2-a, 5-amino-4″-deamino-5-deoxy-5-epi-4″-guanidinoapramycin] | 8 µg/mL (≈ 13.8 µM) | 4 µg/mL (≈ 6.89 µM) | 8 µg/mL (≈ 13.8 µM) | 4 µg/mL (≈ 6.89 µM) | 1 µg/mL (≈ 1.72 µM) | 4 µg/mL (≈ 6.89 µM) | 4 µg/mL (≈ 6.89 µM) | 4 µg/mL (≈ 6.89 µM) | 1 µg/mL (≈ 1.72 µM) | 1 µg/mL (≈ 1.72 µM) | 1 µg/mL (≈ 1.72 µM) | 1 µg/mL (≈ 1.72 µM) | 4 µg/mL (≈ 6.89 µM) | 8 µg/mL (≈ 13.8 µM) | 
CNC1C(OC2OC(CO)C(NC(=N)N)CC2O)OC2CC(N)C(OC3C(N)CC(N)C(O)C3O)OC2C1O (stereo not drawn) [Compound X4-a, 4″-deamino-3″-deoxy-5-epi-4″-guanidinoapramycin] | 4 µg/mL (≈ 7.07 µM) | 4 µg/mL (≈ 7.07 µM) | 8 µg/mL (≈ 14.1 µM) | 4 µg/mL (≈ 7.07 µM) | 1 µg/mL (≈ 1.77 µM) | 4 µg/mL (≈ 7.07 µM) | 4 µg/mL (≈ 7.07 µM) | 4 µg/mL (≈ 7.07 µM) | 0.5 µg/mL (≈ 0.884 µM) | 1 µg/mL (≈ 1.77 µM) | 1 µg/mL (≈ 1.77 µM) | 1 µg/mL (≈ 1.77 µM) | 8 µg/mL (≈ 14.1 µM) | 8 µg/mL (≈ 14.1 µM) | 
CN[C@@H]1[C@@H](O[C@H]2O[C@H](CO)[C@@H](NC(CN)CN)[C@H](O)[C@H]2O)O[C@H]2C[C@@H](N)[C@@H](O[C@H]3[C@@H](O)[C@@H](O)[C@H](N)C[C@@H]3N)O[C@@H]2[C@@H]1O [Compound S1-i, 4″-N-(1,3-diaminopropan-2-yl)-5-epiapramycin] | 4 µg/mL (≈ 6.54 µM) | 4 µg/mL (≈ 6.54 µM) | 2 µg/mL (≈ 3.27 µM) | 4 µg/mL (≈ 6.54 µM) | 2 µg/mL (≈ 3.27 µM) | 8 µg/mL (≈ 13.1 µM) | 4 µg/mL (≈ 6.54 µM) | 2 µg/mL (≈ 3.27 µM) | 1 µg/mL (≈ 1.63 µM) | 2 µg/mL (≈ 3.27 µM) | 1 µg/mL (≈ 1.63 µM) | 2 µg/mL (≈ 3.27 µM) | 4 µg/mL (≈ 6.54 µM) | 4 µg/mL (≈ 6.54 µM) | 
